Source: PubChem BioAssay (NCI)
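Values below derive from 48-hour exposures of cells grown in 96-well plates, with endpoints linearly interpolated between the two concentrations bracketing the appropriate inhibition level. TGI: total growth inhibition.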

Key:
Experiment in all cases: NCI anticancer screen, dose series, 48 h
A549 NSCLC = tested on: A549 NSCLC
ACHN renal = tested on: ACHN renal
COLO 205 colon = tested on: COLO 205 colon
IGROV1 ovarian = tested on: IGROV1 ovarian
KM12 colon = tested on: KM12 colon
NCI-H23 lung = tested on: NCI-H23 lung
NCI/ADR-RES ovarian = tested on: NCI/ADR-RES ovarian
TK-10 renal = tested on: TK-10 renal
U251 CNS = tested on: U251 CNS
UACC-257 melanoma = tested on: UACC-257 melanoma
A498 renal = tested on: A498 renal
NCI-H460 lung = tested on: NCI-H460 lung

Row | SMILES | TGI (A549 NSCLC) | TGI (ACHN renal) | TGI (COLO 205 colon) | TGI (IGROV1 ovarian) | TGI (KM12 colon) | TGI (NCI-H23 lung) | TGI (NCI/ADR-RES ovarian) | TGI (TK-10 renal) | TGI (U251 CNS) | TGI (UACC-257 melanoma) | TGI (A498 renal) | TGI (NCI-H460 lung)
1 | Cc1cc(S(=O)(=O)O)ccc1N=Nc1ccc(N=Nc2c(O)ccc3ccccc23)c(C)c1 | > 100 µM | > 100 µM | > 100 µM | > 100 µM | 83.3 µM | > 100 µM | > 100 µM | > 100 µM | > 100 µM | > 100 µM | – | –
2 | CC(=O)c1ccc2c(c1)oc(=O)n2CCN(C)C | – | > 100 µM | > 100 µM | > 100 µM | > 100 µM | > 100 µM | > 100 µM | > 100 µM | > 100 µM | > 100 µM | > 100 µM | > 100 µM
3 | c1ccc(C(=NNc2nc3ccccc3[nH]2)c2ccccn2)nc1 | > 89.9 µM | 0.698 µM | 16.1 µM | 2.64 µM | > 80.3 µM | > 100 µM | 0.583 µM | – | > 69 µM | 1.92 µM | 4.94 µM | > 100 µM
4 | CC(C)(C)OC(=O)NC(CCCCNC(=O)OCc1ccccc1)C(=O)NC(CCCCNC(=O)OCc1ccccc1)C(=O)ON1C(=O)CCC1=O (stereo not drawn) | > 100 µM | – | > 100 µM | > 100 µM | > 100 µM | > 100 µM | – | > 100 µM | > 100 µM | > 100 µM | – | –
5 | Cc1cc2nc3n(c2cc1C)C(c1c(F)cccc1F)SC3 (stereo not drawn) | 42.4 µM | 40.6 µM | 44.6 µM | > 10 µM | > 10 µM | 38.2 µM | 34.6 µM | > 100 µM | 32.3 µM | > 100 µM | – | 38.5 µM
6 | Cc1ccc(O)c(Cc2nc3ccccc3nc2-c2cccc(Br)c2)c1 | > 100 µM | > 100 µM | > 100 µM | > 100 µM | > 100 µM | > 100 µM | > 100 µM | > 100 µM | > 100 µM | > 100 µM | – | > 100 µM
7 | O=C(NN=C1CCCCC1)Nc1ccccc1Cl | > 100 µM | > 100 µM | > 100 µM | > 100 µM | > 100 µM | > 100 µM | 63.9 µM | > 100 µM | > 100 µM | > 100 µM | – | > 100 µM
8 | CCCCNC(=S)/N=C/c1c(O)c2ccccc2oc1=O | > 100 µM | > 100 µM | > 100 µM | > 100 µM | > 100 µM | > 100 µM | > 100 µM | > 100 µM | > 100 µM | > 100 µM | – | > 100 µM
9 | COCC(=O)[C@]1(O)Cc2c(O)c3c(c(O)c2[C@@H](OC2CC(N)C(O)C(C)O2)C1)C(=O)c1c(OC)cccc1C3=O (stereo partly drawn) | 17.4 µM | – | 1.63 µM | 6.83 µM | 0.357 µM | 0.256 µM | – | 13.8 µM | 1.27 µM | 1.48 µM | 0.624 µM | 0.583 µM
10 | C[C@]12CCC(=O)C=C1CC[C@@H]1[C@@H]2C(=O)C[C@@]2(C)[C@H]1CC[C@]2(O)C(=O)CO | > 100 µM | > 100 µM | > 100 µM | > 100 µM | > 100 µM | > 100 µM | – | > 100 µM | > 100 µM | – | > 100 µM | > 100 µM
11 | O=C(c1ccc(Cl)cc1)N(C(=S)N1CCN(c2ccccn2)CC1)c1ccccc1 | > 100 µM | > 100 µM | > 100 µM | > 100 µM | > 100 µM | > 100 µM | – | > 100 µM | > 100 µM | > 100 µM | – | > 100 µM
12 | CC1NOC(NS(=O)(=O)c2ccc(N=Nc3c(O)c(C(=O)O)cc4ccccc34)cc2)C1C (stereo not drawn) | > 100 µM | > 100 µM | > 100 µM | > 100 µM | > 100 µM | – | > 100 µM | > 100 µM | > 100 µM | > 100 µM | – | > 100 µM
13 | COC(=O)C[C@H](COCc1ccccc1)NC(=O)C[C@H](COCc1ccccc1)NC(=O)C[C@H](COCc1ccccc1)NC(=O)OC(C)(C)C | > 100 µM | > 100 µM | > 100 µM | > 100 µM | > 100 µM | > 100 µM | > 100 µM | – | > 100 µM | – | 67.1 µM | –
14 | CC[C@@]1(O)C(=O)OCc2c1cc1n(c2=O)Cc2c-1nc1ccccc1c2/C=N\NC(=O)C(N)CS (stereo partly drawn) | > 100 µM | – | > 100 µM | > 85.3 µM | > 100 µM | 21.1 µM | > 45.2 µM | > 100 µM | > 34.5 µM | > 100 µM | 23 µM | > 43.6 µM
15 | CCC(=N\NC(N)=S)/C(C)=N/O | > 100 µM | > 100 µM | > 100 µM | > 100 µM | > 100 µM | > 100 µM | > 100 µM | > 100 µM | > 100 µM | > 100 µM | – | > 100 µM
16 | O=C1CCC2=C(CCC2)N1CCc1ccc2c(c1)OCO2 | > 100 µM | > 100 µM | > 100 µM | > 100 µM | > 100 µM | > 100 µM | > 100 µM | > 100 µM | > 100 µM | > 100 µM | – | > 100 µM
17 | CCN(CC)C(=S)SNCCc1ccc(S(N)(=O)=O)cc1 | 26.5 µM | 34.3 µM | > 100 µM | – | 37.6 µM | 38.7 µM | 41.6 µM | 42.5 µM | 31.8 µM | 32.9 µM | > 65.1 µM | > 100 µM
18 | CC(NC(=O)C(C)C(=O)NCc1ccc(C(F)(F)F)cc1)C(N)=O (stereo not drawn) | > 100 µM | > 100 µM | > 100 µM | > 100 µM | > 100 µM | > 100 µM | > 100 µM | – | > 100 µM | > 100 µM | – | > 100 µM
19 | C=C1C(=O)[C@]23[C@H](O)[C@H]1CC[C@H]2[C@@]12CO[C@@]3(O)C[C@@H]1C(C)(C)CC[C@@H]2O | > 25 µM | 18.9 µM | 7.52 µM | 20.9 µM | 18.4 µM | > 25 µM | > 25 µM | > 25 µM | – | 21.1 µM | 20.1 µM | –
20 | O=C(Nc1ccc2ccccc2c1)Nn1cnnc1 | > 100 µM | > 100 µM | > 100 µM | > 100 µM | > 100 µM | > 100 µM | – | > 100 µM | > 100 µM | > 100 µM | > 100 µM | > 100 µM
